Measurements reported in patent publication US20260207572A1, “METHODS AND COMPOSITIONS FOR TREATMENT OF SUBJECTS WITH HEPATIC IMPAIRMENTS” (ELEVAR THERAPEUTICS, INC., priority 2022, published 2026).
Read-outs that look alike come from different tables or passages of the source.

Experiment: Phase 1 single-dose plasma pharmacokinetics in subjects with normal hepatic function, mild or moderate hepatic impairment
Format: in vivo, human
Conditions: for Plasma concentration, Arithmetic Mean / Plasma concentration, Median: Predose; for AUC(0-t) / AUC(0-inf) / Cmax / Vd/F / half-life / Tmax / concentration at 0.5 h / concentration at 1 h / concentration at 2 h / concentration at 3 h / concentration at 4 h / concentration at 6 h / concentration at 8 h / concentration at 12 h / concentration at 16 h / concentration at 24 h / concentration at 36 h / concentration at 48 h: human, plasma, 200 mg
Description: Patients: 27 subjects were enrolled within the following groups based on their Child-Pugh (CP) classification score: • Group 1: Matched-control healthy subjects with normal hepatic function; • Group 2: Subjects with mild hepatic impairment (CP Class A, score of 5 or 6); • Group 3: Subjects with moderate hepatic impairment (CP Class B, score of 7 to 9).
A parallel design strategy was adopted for the hepatic impairment groups. Each matched-control healthy subject (Group 1) was enrolled following the enrollment of a mild and/or moderate hepatic impairment subject and was demographically matched by age (±10 years), BMI (±20%), and sex to the enrolled hepatic impairment subject(s). Subjects with normal hepatic function were not matched to more than 1 hepatically-impaired subject within an impairment group; however, subjects with normal hepatic function could be matched to 1 subject from more than 1 hepatic impairment group.
Other noncompartmental parameters could be reported.
The paired t-test was performed separately for each hepatic impairment group and the corresponding matched healthy controls. Estimates of geometric mean ratios in primary PK parameters between each level of impaired hepatic function versus the matched healthy controls were presented along with the corresponding 90% confidence intervals (CIs) for the geometric mean ratios. The p-value assessing the difference between each impairment group and the healthy control group was presented.
The PK analysis was conducted by Covance Early Clinical Biometrics using WinNonlin Version 8.1.

[1] = Mild Hepatic Impairment, 200 mg single oral dose
[2] = Moderate Hepatic Impairment, 200 mg single oral dose
[3] = Normal Hepatic Function, 200 mg single oral dose
[4] = po, Mild Hepatic Impairment, 200 mg single oral dose, read-out: Plasma concentration, Arithmetic Mean
[5] = po, Mild Hepatic Impairment, 200 mg single oral dose, read-out: Plasma concentration, Geometric Mean
[6] = po, Mild Hepatic Impairment, 200 mg single oral dose, read-out: Plasma concentration, Median

N#CC1(c2ccc(NC(=O)c3cccnc3NCc3ccncc3)cc2)CCCC1 [Rivoceranib, N-[4-(1-cyanocyclopentyl)phenyl]-2-{[(pyridin-4-yl)methyl]amino} pyridine-3-carboxamide]
AUC0-∞, Geometric Mean [1]: 2308.66 ng·h/mL
CL/F, Arithmetic Mean [1]: 103.183 L/h
CL/F, Geometric Mean [1]: 86.630 L/h
CL/F, Median [1]: 93.423 L/h
Plasma concentration, Arithmetic Mean [1]: 0.00 ng/mL
Plasma concentration, Median [1]: 0.00 ng/mL
CL/F, Arithmetic Mean [2]: 89.904 L/h
CL/F, Geometric Mean [2]: 81.335 L/h
CL/F, Median [2]: 77.251 L/h
Plasma concentration, Arithmetic Mean [2]: 0.00 ng/mL
Plasma concentration, Median [2]: 0.00 ng/mL
CL/F, Arithmetic Mean [3]: 68.404 L/h
CL/F, Geometric Mean [3]: 65.546 L/h
CL/F, Median [3]: 69.489 L/h
Plasma concentration, Arithmetic Mean [3]: 0.00 ng/mL
Plasma concentration, Median [3]: 0.00 ng/mL
AUC(0-t) (oral, Mild vs Normal: Mild hepatic impairment, paired analysis, read-out: AUC0-t, Geometric Least Squares Mean, Test): 2080 ng·h/mL
AUC(0-inf) (oral, Mild vs Normal: Mild hepatic impairment, paired analysis, read-out: AUC0-∞, Geometric Least Squares Mean, Test): 2520 ng·h/mL
Cmax (oral, Mild vs Normal: Mild hepatic impairment, paired analysis, read-out: Cmax, Geometric Least Squares Mean, Test): 182 ng/mL
AUC(0-t) (oral, Mild vs Normal: matched Normal hepatic function, paired analysis, read-out: AUC0-t, Geometric Least Squares Mean, Reference): 2820 ng·h/mL
AUC(0-inf) (oral, Mild vs Normal: matched Normal hepatic function, paired analysis, read-out: AUC0-∞, Geometric Least Squares Mean, Reference): 3020 ng·h/mL
Cmax (oral, Mild vs Normal: matched Normal hepatic function, paired analysis, read-out: Cmax, Geometric Least Squares Mean, Reference): 303 ng/mL
AUC(0-t) (oral, Moderate vs Normal: Moderate hepatic impairment, paired analysis, read-out: AUC0-t, Geometric Least Squares Mean, Test): 2380 ng·h/mL
AUC(0-inf) (oral, Moderate vs Normal: Moderate hepatic impairment, paired analysis, read-out: AUC0-∞, Geometric Least Squares Mean, Test): 2430 ng·h/mL
Cmax (oral, Moderate vs Normal: Moderate hepatic impairment, paired analysis, read-out: Cmax, Geometric Least Squares Mean, Test): 210 ng/mL
AUC(0-t) (oral, Moderate vs Normal: matched Normal hepatic function, paired analysis, read-out: AUC0-t, Geometric Least Squares Mean, Reference): 2550 ng·h/mL
AUC(0-inf) (oral, Moderate vs Normal: matched Normal hepatic function, paired analysis, read-out: AUC0-∞, Geometric Least Squares Mean, Reference): 2980 ng·h/mL
Cmax (oral, Moderate vs Normal: matched Normal hepatic function, paired analysis, read-out: Cmax, Geometric Least Squares Mean, Reference): 247 ng/mL
AUC(0-t) (po, Mild Hepatic Impairment, 200 mg single oral dose, read-out: AUC0-t, Arithmetic Mean): 2550 ng·h/mL
AUC(0-t) (po, Mild Hepatic Impairment, 200 mg single oral dose, read-out: AUC0-t, Geometric Mean): 2070 ng·h/mL
AUC(0-t) (po, Mild Hepatic Impairment, 200 mg single oral dose, read-out: AUC0-t, Median): 1940 ng·h/mL
AUC(0-inf) (po, Mild Hepatic Impairment, 200 mg single oral dose, read-out: AUC0-∞, Arithmetic Mean): 2840 ng·h/mL
AUC(0-inf) (po, Mild Hepatic Impairment, 200 mg single oral dose, read-out: AUC0-∞, Geometric Mean): 2310 ng·h/mL
AUC(0-inf) (po, Mild Hepatic Impairment, 200 mg single oral dose, read-out: AUC0-∞, Median): 2140 ng·h/mL
Cmax (po, Mild Hepatic Impairment, 200 mg single oral dose, read-out: Cmax, Arithmetic Mean): 291 ng/mL
Cmax (po, Mild Hepatic Impairment, 200 mg single oral dose, read-out: Cmax, Geometric Mean): 182 ng/mL
Cmax (po, Mild Hepatic Impairment, 200 mg single oral dose, read-out: Cmax, Median): 202 ng/mL
Vd/F (po, Mild Hepatic Impairment, 200 mg single oral dose, read-out: VZ/F, Arithmetic Mean): 1830 L
Vd/F (po, Mild Hepatic Impairment, 200 mg single oral dose, read-out: VZ/F, Geometric Mean): 1400 L
Vd/F (po, Mild Hepatic Impairment, 200 mg single oral dose, read-out: VZ/F, Median): 1100 L
half-life (po, Mild Hepatic Impairment, 200 mg single oral dose, read-out: t1/2, Arithmetic Mean (converted)): 13.3 ± 5.58 h
half-life (po, Mild Hepatic Impairment, 200 mg single oral dose, read-out: t1/2, Geometric Mean (converted)): 12.4 h
half-life (po, Mild Hepatic Impairment, 200 mg single oral dose, read-out: t1/2, Median (converted)): 12.3 h
Tmax (po, Mild Hepatic Impairment, 200 mg single oral dose, read-out: tmax, Arithmetic Mean): 3.6 h
Tmax (po, Mild Hepatic Impairment, 200 mg single oral dose, read-out: tmax, Geometric Mean): 2.8 h
Tmax (po, Mild Hepatic Impairment, 200 mg single oral dose, read-out: tmax, Median): 2.5 h
concentration at 0.5 h [4]: 41.5 ng/mL
concentration at 0.5 h [5]: 29.4 ng/mL
concentration at 0.5 h [6]: 30.2 ng/mL
concentration at 1 h [4]: 178 ng/mL
concentration at 1 h [5]: 112 ng/mL
concentration at 1 h [6]: 149 ng/mL
concentration at 2 h [4]: 279 ng/mL
concentration at 2 h [5]: 165 ng/mL
concentration at 2 h [6]: 194 ng/mL
concentration at 3 h [4]: 220 ng/mL
concentration at 3 h [5]: 138 ng/mL
concentration at 3 h [6]: 155 ng/mL
concentration at 4 h [4]: 164 ng/mL
concentration at 4 h [5]: 112 ng/mL
concentration at 4 h [6]: 95.8 ng/mL
concentration at 6 h [4]: 122 ng/mL
concentration at 6 h [5]: 95.4 ng/mL
concentration at 6 h [6]: 91.3 ng/mL
concentration at 8 h [4]: 96 ng/mL
concentration at 8 h [5]: 77.8 ng/mL
concentration at 8 h [6]: 68.5 ng/mL
concentration at 12 h [4]: 66.6 ng/mL
concentration at 12 h [5]: 54.9 ng/mL
concentration at 12 h [6]: 43.9 ng/mL
concentration at 16 h [4]: 54.3 ng/mL
concentration at 16 h [5]: 45.3 ng/mL
concentration at 16 h [6]: 39.6 ng/mL
concentration at 24 h [4]: 34.5 ng/mL
concentration at 24 h [5]: 29 ng/mL
concentration at 24 h [6]: 26 ng/mL
concentration at 36 h [4]: 16.1 ng/mL
concentration at 36 h [5]: 15.2 ng/mL
concentration at 36 h [6]: 13.8 ng/mL
concentration at 48 h [4]: 8.5 ng/mL
concentration at 48 h [5]: 9.97 ng/mL
concentration at 48 h [6]: 7.26 ng/mL
AUC(0-t) (po, Moderate Hepatic Impairment, 200 mg single oral dose, read-out: AUC0-t, Arithmetic Mean): 2590 ng·h/mL
AUC(0-t) (po, Moderate Hepatic Impairment, 200 mg single oral dose, read-out: AUC0-t, Geometric Mean): 2380 ng·h/mL
AUC(0-t) (po, Moderate Hepatic Impairment, 200 mg single oral dose, read-out: AUC0-t, Median): 2450 ng·h/mL
AUC(0-inf) (po, Moderate Hepatic Impairment, 200 mg single oral dose, read-out: AUC0-∞, Arithmetic Mean): 2660 ng·h/mL
AUC(0-inf) (po, Moderate Hepatic Impairment, 200 mg single oral dose, read-out: AUC0-∞, Geometric Mean): 2460 ng·h/mL
AUC(0-inf) (po, Moderate Hepatic Impairment, 200 mg single oral dose, read-out: AUC0-∞, Median): 2590 ng·h/mL
Cmax (po, Moderate Hepatic Impairment, 200 mg single oral dose, read-out: Cmax, Arithmetic Mean): 239 ng/mL
Cmax (po, Moderate Hepatic Impairment, 200 mg single oral dose, read-out: Cmax, Geometric Mean): 210 ng/mL
Cmax (po, Moderate Hepatic Impairment, 200 mg single oral dose, read-out: Cmax, Median): 180 ng/mL
Vd/F (po, Moderate Hepatic Impairment, 200 mg single oral dose, read-out: VZ/F, Arithmetic Mean): 2250 L
Vd/F (po, Moderate Hepatic Impairment, 200 mg single oral dose, read-out: VZ/F, Geometric Mean): 2020 L
Vd/F (po, Moderate Hepatic Impairment, 200 mg single oral dose, read-out: VZ/F, Median): 2090 L
half-life (po, Moderate Hepatic Impairment, 200 mg single oral dose, read-out: t1/2, Arithmetic Mean (converted)): 18.7 ± 3.97 h
